From patent EP1247803A2, “Indolinone compounds suitable for modulation of protein kinases” (Sugen, Inc., priority 1996, dated 1998) come the findings set out here.

In the assay the target is T1, FLK-1 receptor (Mus musculus, UniProt P35918).
T1 construct: expressed in transfected cells; host or cells: NIH3T3 C7#3
T1 sequence (P35918 20-1345): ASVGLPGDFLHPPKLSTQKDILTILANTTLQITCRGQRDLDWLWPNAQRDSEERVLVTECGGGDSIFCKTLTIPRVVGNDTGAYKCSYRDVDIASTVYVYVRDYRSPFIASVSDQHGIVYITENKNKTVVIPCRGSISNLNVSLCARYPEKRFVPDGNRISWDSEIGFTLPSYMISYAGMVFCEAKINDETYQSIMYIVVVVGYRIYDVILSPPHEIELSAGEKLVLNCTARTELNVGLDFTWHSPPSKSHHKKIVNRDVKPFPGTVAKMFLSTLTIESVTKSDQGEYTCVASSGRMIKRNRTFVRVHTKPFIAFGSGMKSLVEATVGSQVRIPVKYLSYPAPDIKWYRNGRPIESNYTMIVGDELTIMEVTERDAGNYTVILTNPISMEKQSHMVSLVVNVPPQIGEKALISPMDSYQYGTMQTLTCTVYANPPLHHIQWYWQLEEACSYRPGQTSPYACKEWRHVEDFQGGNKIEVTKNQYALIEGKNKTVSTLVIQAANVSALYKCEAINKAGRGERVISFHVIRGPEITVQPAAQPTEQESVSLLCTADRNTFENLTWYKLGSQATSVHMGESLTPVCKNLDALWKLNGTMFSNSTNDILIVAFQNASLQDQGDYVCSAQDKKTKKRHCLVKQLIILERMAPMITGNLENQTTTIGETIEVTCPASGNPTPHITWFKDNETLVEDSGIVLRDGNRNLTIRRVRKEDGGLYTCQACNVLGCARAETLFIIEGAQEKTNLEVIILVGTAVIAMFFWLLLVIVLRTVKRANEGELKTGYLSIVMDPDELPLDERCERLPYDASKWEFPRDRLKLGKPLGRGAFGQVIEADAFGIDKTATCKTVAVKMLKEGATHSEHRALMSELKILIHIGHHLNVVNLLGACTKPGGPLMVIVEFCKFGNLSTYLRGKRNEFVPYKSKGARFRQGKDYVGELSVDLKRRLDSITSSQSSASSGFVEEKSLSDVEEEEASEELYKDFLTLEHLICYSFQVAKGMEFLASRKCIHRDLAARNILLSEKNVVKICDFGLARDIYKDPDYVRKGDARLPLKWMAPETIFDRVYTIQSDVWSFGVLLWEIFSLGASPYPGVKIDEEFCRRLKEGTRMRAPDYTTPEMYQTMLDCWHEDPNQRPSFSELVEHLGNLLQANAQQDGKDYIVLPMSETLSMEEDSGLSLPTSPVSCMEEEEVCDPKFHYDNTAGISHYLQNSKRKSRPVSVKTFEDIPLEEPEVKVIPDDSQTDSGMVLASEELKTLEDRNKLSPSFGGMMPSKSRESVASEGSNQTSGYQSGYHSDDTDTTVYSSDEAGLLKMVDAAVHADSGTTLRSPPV
Description: FLK-1 ELISA (kinase activity of the FLK-1 receptor in FLK-1/NIH3T3 cells, VEGF stimulated). The assay is classed as cell-based. More on the design: concentration or dose not given beside the values. Summed up:
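FLK-1-expressing NIH3T3 C7#3 cells, starved overnight in 0.1% FBS medium, were treated with compounds at a 1:200 final dilution (0.5% DMSO) for 2 h at 37 °C, with VEGF stimulation. FLK-1 kinase activity was read by ELISA on anti-rabbit IgG plates using affinity-purified anti-FLK-1 antiserum.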
Turning to `O=C1Nc2c(Br)cc(Br)cc2C1=Cc1ccc(Br)cc1` [10717/A08], the “Fik Kinase %Inhibition” value is reported as -5.2%.

`COC(=O)c1[nH]c(C)c(C=C2C(=O)Nc3ccc(I)cc32)c1C(=O)OC` [10718/B07]: the “Fik Kinase %Inhibition” value is given as 17.7%. For `O=C1Nc2ccc(I)cc2C1=Cc1ccc(Cl)c([N+](=O)[O-])c1` [10718/B08], the “Fik Kinase %Inhibition” value was 5.4%. The value for `Cc1c(O)ccc(C=C2C(=O)Nc3ccc(I)cc32)c1O` [10718/B09] was -14.7%; that for `O=C1Nc2ccc(I)cc2C1=Cc1ccco1` [10718/B10] was 20.1%.

As to `O=C1Nc2ccc(I)cc2C1=Cc1ccc([N+](=O)[O-])o1` [10718/B11], the “Fik Kinase %Inhibition” value was 4.5%.

In the case of `CCOC(=O)c1c(C)[nH]c(C=C2C(=O)Nc3ccc(Br)c(C)c32)c1C` [10718/C02], the “Fik Kinase %Inhibition” value is 26.2%. `COc1cc(Br)c(O)c(C=C2C(=O)Nc3ccc(Br)c(C)c32)c1` [10718/C03]: the “Fik Kinase %Inhibition” value is -13.9%. Turning to `Cc1c(Br)ccc2c1C(=Cc1ccc3ccccc3c1O)C(=O)N2` [10718/C04], the “Fik Kinase %Inhibition” value came to 15.3%. `O=C1Nc2ccc(S(=O)(=O)Nc3ccc(C(F)(F)F)cc3)cc2C1=Cc1cccnc1` [10729/E08]: the “Fik Kinase %Inhibition” value worked out at 10.9%. Take `O=C1Nc2ccc(S(=O)(=O)Nc3ccc(C(F)(F)F)cc3)cc2C1=Cc1ccncc1` [10729/E09]: the “Fik Kinase %Inhibition” value was 6.9%. In the case of `O=C1Nc2ccc(S(=O)(=O)Nc3ccc(C(F)(F)F)cc3)cc2C1=Cc1ccc(N2CCCC2)cc1` [10729/E10], the “Fik Kinase %Inhibition” value was found to be 5.7%. Next, `O=C1Nc2ccc(S(=O)(=O)Nc3ccc(C(F)(F)F)cc3)cc2C1=CC1C=CCCC1` (stereo not drawn) [10729/E11]: 70.9%. As to `COc1ccc2ccccc2c1C=C1C(=O)Nc2ccc(CCCl)cc21` [10729/G02], the “Fik Kinase %Inhibition” value is recorded as 18.8%.

`COc1ccc(C=C2C(=O)Nc3ccc(CCCl)cc32)c2ccccc12` [10729/G03]: the “Fik Kinase %Inhibition” value is 10.4%. Next, `CSc1ccc(C=C2C(=O)Nc3ccc(CCCl)cc32)cc1` [10729/G04]: 12.2%. The value for `Cc1ccsc1C=C1C(=O)Nc2ccc(CCCl)cc21` [10729/G05] was 8.7%. `O=C1Nc2ccc(CCCl)cc2C1=Cc1cccc(Oc2ccccc2)c1` [10729/G06]: the “Fik Kinase %Inhibition” value turned out to be 10.9%. The value for `O=C1Nc2ccc(CCCl)cc2C1=Cc1ccccn1` [10729/G07] was -2.5%; that for `O=C1Nc2ccc(CCCl)cc2C1=Cc1cccnc1` [10729/G08] was -1.0%; that for `O=C1Nc2ccc(CCCl)cc2C1=Cc1ccncc1` [10729/G09] was -3.3%. Turning to `O=C1Nc2ccc(CCCl)cc2C1=Cc1ccc(N2CCCC2)cc1` [10729/G10], the “Fik Kinase %Inhibition” value is reported as -9.1%. The value for `O=C1Nc2ccc(CCCl)cc2C1=CC1C=CCCC1` (stereo not drawn) [10729/G11] was -0.5%.

As for `COc1ccc(C=C2C(=O)Nc3c(Br)cc(Br)cc32)c(OC)c1OC` [10730/A02], the “Fik Kinase %Inhibition” value was -3.7%. Next, `COc1cc(OC)c(OC)cc1C=C1C(=O)Nc2c(Br)cc(Br)cc21` [10730/A03]: -3.2%; `COc1cc(C=C2C(=O)Nc3c(Br)cc(Br)cc32)cc(OC)c1OC` [10730/A04]: -9.9%. With `CC(=O)n1cc(C=C2C(=O)Nc3c(Br)cc(Br)cc32)c2ccccc21` [10730/A05], the “Fik Kinase %Inhibition” value is recorded as -10.8%.

In the case of `O=C1Nc2c(Br)cc(Br)cc2C1=Cc1coc2ccc(Cl)cc2c1=O` [10730/A06], the “Fik Kinase %Inhibition” value is recorded as -7.0%.

As for `O=C1Nc2c(Br)cc(Br)cc2C1=Cc1ccc(-c2ccccc2Cl)o1` [10730/A07], the “Fik Kinase %Inhibition” value is given as -18.9%. Next, `O=C1Nc2c(Br)cc(Br)cc2C1=Cc1cc2ccccc2nc1Cl` [10730/A08]: -2.9%; `O=C1Nc2c(Br)cc(Br)cc2C1=Cc1coc2c(Br)cc(Br)cc2c1=O` [10730/A09]: 1.9%; `COC1CC(C=C2C(=O)Nc3c(Br)cc(Br)cc32)C(OC)O1` (stereo not drawn) [10730/A10]: 0.5%.

For the molecule `Cc1cc(C=C2C(=O)Nc3c(Br)cc(Br)cc32)oc1C` [10730/A11], the “Fik Kinase %Inhibition” value came out at 6.8%. The value for `COc1ccc(C=C2C(=O)Nc3ccc(I)cc32)c(OC)c1OC` [10730/B02] was 5.0%. Next, `COc1cc(OC)c(OC)cc1C=C1C(=O)Nc2ccc(I)cc21` [10730/B03]: -0.5%; `COc1cc(C=C2C(=O)Nc3ccc(I)cc32)cc(OC)c1OC` [10730/B04]: 12.8%. The value for `CC(=O)n1cc(C=C2C(=O)Nc3ccc(I)cc32)c2ccccc21` [10730/B05] was -0.5%.

Consider `O=C1Nc2ccc(I)cc2C1=Cc1coc2ccc(Cl)cc2c1=O` [10730/B06], for which the “Fik Kinase %Inhibition” value was determined as 2.4%. For the molecule `O=C1Nc2ccc(I)cc2C1=Cc1ccc(-c2ccccc2Cl)o1` [10730/B07], the “Fik Kinase %Inhibition” value was found to be 0.6%.

Take `O=C1Nc2ccc(I)cc2C1=Cc1cc2ccccc2nc1Cl` [10730/B08]: the “Fik Kinase %Inhibition” value worked out at 4.4%. Consider `O=C1Nc2ccc(I)cc2C1=Cc1coc2c(Br)cc(Br)cc2c1=O` [10730/B09], for which the “Fik Kinase %Inhibition” value amounted to 9.4%. On to `COC1CC(C=C2C(=O)Nc3ccc(I)cc32)C(OC)O1` (stereo not drawn) [10730/B10], for which the “Fik Kinase %Inhibition” value is on record as 15.2%. For the molecule `Cc1cc(C=C2C(=O)Nc3ccc(I)cc32)oc1C` [10730/B11], the “Fik Kinase %Inhibition” value worked out at 1.9%. The value for `COc1ccc(C=C2C(=O)Nc3ccc(Br)c(C)c32)c(OC)c1OC` [10730/C02] was 48.8%. The value for `COc1cc(OC)c(OC)cc1C=C1C(=O)Nc2ccc(Br)c(C)c21` [10730/C03] was 25.5%. `COc1cc(C=C2C(=O)Nc3ccc(Br)c(C)c32)cc(OC)c1OC` [10730/C04]: the “Fik Kinase %Inhibition” value is on record as 46.1%. Next, `CC(=O)n1cc(C=C2C(=O)Nc3ccc(Br)c(C)c32)c2ccccc21` [10730/C05]: 11.4%. Next, `Cc1c(Br)ccc2c1C(=Cc1coc3ccc(Cl)cc3c1=O)C(=O)N2` [10730/C06]: 5.3%; `Cc1c(Br)ccc2c1C(=Cc1ccc(-c3ccccc3Cl)o1)C(=O)N2` [10730/C07]: 7.3%; `Cc1c(Br)ccc2c1C(=Cc1cc3ccccc3nc1Cl)C(=O)N2` [10730/C08]: -2.3%. As for `Cc1c(Br)ccc2c1C(=Cc1coc3c(Br)cc(Br)cc3c1=O)C(=O)N2` [10730/C09], the “Fik Kinase %Inhibition” value is 14.0%.

Consider `COC1CC(C=C2C(=O)Nc3ccc(Br)c(C)c32)C(OC)O1` (stereo not drawn) [10730/C10], for which the “Fik Kinase %Inhibition” value worked out at 15.4%. Take `Cc1cc(C=C2C(=O)Nc3ccc(Br)c(C)c32)oc1C` [10730/C11]: the “Fik Kinase %Inhibition” value is reported as -8.0%.

Take `CNS(=O)(=O)c1ccc2c(c1)C(=Cc1ccc(OC)c(OC)c1OC)C(=O)N2` [10730/D02]: the “Fik Kinase %Inhibition” value is on record as 12.4%. The value for `CNS(=O)(=O)c1ccc2c(c1)C(=Cc1cc(OC)c(OC)cc1OC)C(=O)N2` [10730/D03] was 8.4%. Regarding `CNS(=O)(=O)c1ccc2c(c1)C(=Cc1cc(OC)c(OC)c(OC)c1)C(=O)N2` [10730/D04], the “Fik Kinase %Inhibition” value is 9.1%. The value for `CNS(=O)(=O)c1ccc2c(c1)C(=Cc1cn(C(C)=O)c3ccccc13)C(=O)N2` [10730/D05] was 11.9%; that for `CNS(=O)(=O)c1ccc2c(c1)C(=Cc1coc3ccc(Cl)cc3c1=O)C(=O)N2` [10730/D06] was 5.8%; that for `CNS(=O)(=O)c1ccc2c(c1)C(=Cc1ccc(-c3ccccc3Cl)o1)C(=O)N2` [10730/D07] was 8.8%. As to `CNS(=O)(=O)c1ccc2c(c1)C(=Cc1cc3ccccc3nc1Cl)C(=O)N2` [10730/D08], the “Fik Kinase %Inhibition” value is recorded as 8.6%. Next, `CNS(=O)(=O)c1ccc2c(c1)C(=Cc1coc3c(Br)cc(Br)cc3c1=O)C(=O)N2` [10730/D09]: 9.8%; `CNS(=O)(=O)c1ccc2c(c1)C(=CC1CC(OC)OC1OC)C(=O)N2` (stereo not drawn) [10730/D10]: -15.3%. For the molecule `CNS(=O)(=O)c1ccc2c(c1)C(=Cc1cc(C)c(C)o1)C(=O)N2` [10730/D11], the “Fik Kinase %Inhibition” value worked out at 7.7%. Regarding `COc1ccc(C=C2C(=O)Nc3ccc(S(=O)(=O)Nc4ccc(C(F)(F)F)cc4)cc32)c(OC)c1OC` [10730/E02], the “Fik Kinase %Inhibition” value is on record as 24.8%.

As to `COc1cc(OC)c(OC)cc1C=C1C(=O)Nc2ccc(S(=O)(=O)Nc3ccc(C(F)(F)F)cc3)cc21` [10730/E03], the “Fik Kinase %Inhibition” value was determined as 34.5%. Next, `COc1cc(C=C2C(=O)Nc3ccc(S(=O)(=O)Nc4ccc(C(F)(F)F)cc4)cc32)cc(OC)c1OC` [10730/E04]: 22.1%; `CC(=O)n1cc(C=C2C(=O)Nc3ccc(S(=O)(=O)Nc4ccc(C(F)(F)F)cc4)cc32)c2ccccc21` [10730/E05]: 8.7%; `O=C1Nc2ccc(S(=O)(=O)Nc3ccc(C(F)(F)F)cc3)cc2C1=Cc1coc2ccc(Cl)cc2c1=O` [10730/E06]: 11.1%. For `O=C1Nc2ccc(S(=O)(=O)Nc3ccc(C(F)(F)F)cc3)cc2C1=Cc1ccc(-c2ccccc2Cl)o1` [10730/E07], the “Fik Kinase %Inhibition” value turned out to be 12.0%. The value for `O=C1Nc2ccc(S(=O)(=O)Nc3ccc(C(F)(F)F)cc3)cc2C1=Cc1cc2ccccc2nc1Cl` [10730/E08] was 25.1%; that for `O=C1Nc2ccc(S(=O)(=O)Nc3ccc(C(F)(F)F)cc3)cc2C1=Cc1coc2c(Br)cc(Br)cc2c1=O` [10730/E09] was 21.8%. For the molecule `COC1CC(C=C2C(=O)Nc3ccc(S(=O)(=O)Nc4ccc(C(F)(F)F)cc4)cc32)C(OC)O1` (stereo not drawn) [10730/E10], the “Fik Kinase %Inhibition” value was 26.0%.
